{"source": "patent US20120264735A1", "about": "(priority 2009, published 2012)", "data": [{"target": "T1, c-Met kinase (recombinant c-Met) (Homo sapiens, UniProt P08581)", "T1 construct": "0.27 nM recombinant c-Met", "T1 sequence (P08581 25-1390)": "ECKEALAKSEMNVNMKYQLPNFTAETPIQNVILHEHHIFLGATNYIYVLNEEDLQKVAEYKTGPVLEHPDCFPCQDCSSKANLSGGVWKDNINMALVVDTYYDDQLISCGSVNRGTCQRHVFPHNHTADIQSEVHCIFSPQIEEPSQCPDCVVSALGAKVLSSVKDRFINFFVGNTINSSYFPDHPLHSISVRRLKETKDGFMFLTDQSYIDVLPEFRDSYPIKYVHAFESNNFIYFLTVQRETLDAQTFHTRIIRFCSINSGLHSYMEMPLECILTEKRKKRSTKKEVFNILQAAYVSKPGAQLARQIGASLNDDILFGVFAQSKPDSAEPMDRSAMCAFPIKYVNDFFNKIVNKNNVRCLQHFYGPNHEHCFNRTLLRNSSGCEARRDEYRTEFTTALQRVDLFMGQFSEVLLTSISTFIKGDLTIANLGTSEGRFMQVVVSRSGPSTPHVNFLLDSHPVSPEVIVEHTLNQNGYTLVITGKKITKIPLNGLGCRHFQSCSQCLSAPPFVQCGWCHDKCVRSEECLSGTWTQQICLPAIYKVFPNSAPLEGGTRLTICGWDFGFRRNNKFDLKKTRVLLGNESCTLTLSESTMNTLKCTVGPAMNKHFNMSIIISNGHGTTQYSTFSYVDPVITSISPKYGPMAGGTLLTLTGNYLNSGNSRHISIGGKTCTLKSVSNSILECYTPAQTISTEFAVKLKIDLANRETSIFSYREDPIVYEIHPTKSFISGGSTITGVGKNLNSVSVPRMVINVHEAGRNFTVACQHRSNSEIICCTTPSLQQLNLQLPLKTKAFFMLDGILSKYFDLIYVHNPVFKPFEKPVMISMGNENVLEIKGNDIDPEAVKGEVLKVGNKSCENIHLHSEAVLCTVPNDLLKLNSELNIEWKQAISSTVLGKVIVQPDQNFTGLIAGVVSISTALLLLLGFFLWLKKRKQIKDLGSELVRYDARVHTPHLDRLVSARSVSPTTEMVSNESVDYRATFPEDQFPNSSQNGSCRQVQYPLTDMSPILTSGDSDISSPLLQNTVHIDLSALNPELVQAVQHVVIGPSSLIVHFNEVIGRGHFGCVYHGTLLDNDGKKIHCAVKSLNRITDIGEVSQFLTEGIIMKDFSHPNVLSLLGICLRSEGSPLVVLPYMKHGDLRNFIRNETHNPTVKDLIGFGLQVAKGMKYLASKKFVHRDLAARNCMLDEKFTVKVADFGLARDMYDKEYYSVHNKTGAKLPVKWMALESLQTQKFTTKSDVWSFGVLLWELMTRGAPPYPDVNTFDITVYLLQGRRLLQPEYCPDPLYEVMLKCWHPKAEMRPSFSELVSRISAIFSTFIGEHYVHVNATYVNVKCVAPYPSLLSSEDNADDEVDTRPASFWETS", "test": "In vitro kinase assay I (homogeneous time-resolved fluorescence tyrosine kinase assay)", "assay_type": "biochemical", "procedure,_shortened": "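Biotinylated peptide (0.5 μM) phosphorylated by 0.2 nM recombinant c-Met with 50 μM MgATP, 60 min at room temperature, pH 7.4, 5% DMSO. EDTA stop; HTRF read with Eu-anti-phosphotyrosine antibody and streptavidin-APC. IC50 from 4-parameter logistic fit.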", "units": {"IC50": "nM"}, "values": [{"smiles": "Cn1cc(-n2ccc(=O)c(Cc3cccc(-c4ncc(CN5CCSCC5)cn4)c3)n2)cn1", "note": "[Example 428, 1-(1-methyl-1H-pyrazol-4-yl)-3-{3-[5-(thiomorpholin-4-ylmethyl)pyrimidin-2-yl]benzyl}pyridazin-4(1H)-one]", "IC50": "< 100"}, {"smiles": "O=C(Nc1cccc(Cc2nn(-c3cc(F)c(F)c(F)c3)ccc2=O)c1)OCC1CCCC1", "note": "[Example 556, cyclopentylmethyl (3-{[4-oxo-1-(3,4,5-trifluorophenyl)-1,4-dihydropyridazin-3-yl]methyl}phenyl)carbamate]", "IC50": "< 100"}, {"smiles": "Cn1cc(-n2ccc(=O)c(Cc3cccc(-c4ncc(NC(=O)CC5CCCO5)cn4)c3)n2)cn1", "note": "(racemic) [Example 464, rac-N-[2-(3-{[1-(1-methyl-1H-pyrazol-4-yl)-4-oxo-1,4-dihydro-pyridazin-3-yl]methyl}phenyl)pyrimidin-5-yl]-2-(tetrahydro-furan-2-yl)acetamide]", "IC50": "100 to 1000"}, {"smiles": "CN1CCN(CCOC(=O)Nc2cccc(Cc3nn(-c4cc(F)c(F)c(F)c4)ccc3=O)c2)CC1", "note": "[Example 516, 2-(4-methylpiperazin-1-yl)ethyl (3-{[4-oxo-1-(3,4,5-trifluorophenyl)-1,4-dihydropyridazin-3-yl]methyl}phenyl)carbamate]", "IC50": "< 100"}, {"smiles": "O=c1ccn(-c2ccc(F)c(F)c2)nc1Cc1cccc(-c2ncc(OC3CCOC3)cn2)c1", "note": "(single isomer, unassigned) [Example 349, 1-(3,4-difluorophenyl)-3-(3-{5-[(3R or S)-tetrahydrofuran-3-yloxy]pyrimidin-2-yl}benzyl)pyridazin-4(1H)-one]", "IC50": "< 100"}, {"smiles": "CN1CCN(CCOC(=O)Nc2cccc(Cc3nn(-c4cnn(C)c4)ccc3=O)c2)CC1", "note": "[Example 530, 2-(4-methylpiperazin-1-yl)ethyl (3-{[1-(1-methyl-1H-pyrazol-4-yl)-4-oxo-1,4-dihydropyridazin-3-yl]methyl}phenyl)carbamate]", "IC50": "< 100"}, {"smiles": "CCCOC(=O)Nc1cccc(Cc2nn(-c3ccn(C)n3)ccc2=O)c1", "note": "[Example 27, propyl (3-{[1-(1-methyl-1H-pyrazol-3-yl)-4-oxo-1,4-dihydropyridazin-3-yl]methyl}phenyl)carbamate]", "IC50": "100 to 1000"}, {"smiles": "Cn1cc(-n2ccc(=O)c(Cc3cccc4[nH]ncc34)n2)cn1", "note": "[Example 50, 3-(1H-indazol-4-ylmethyl)-1-(1-methyl-1H-pyrazol-4-yl)pyridazin-4(1H)-one]", "IC50": "1000 to 3000"}, {"smiles": "Cn1cc(-n2ccc(=O)c(Cc3cccc(NC(=O)OCC4CCO4)c3)n2)cn1", "note": "(racemic) [Example 578, rac-oxetan-2-ylmethyl (3-{[1-(1-methyl-1H-pyrazol-4-yl)-4-oxo-1,4-dihydropyridazin-3-yl]methyl}phenyl)carbamate]", "IC50": "< 100"}, {"smiles": "CC(C)COC(=O)Nc1cccc(Cc2nn(-c3cnn(CCCC(=O)O)c3)ccc2=O)c1", "note": "[Example 180, 4-{4-[3-(3-{[(2-methylpropoxy)carbonyl]amino}benzyl)-4-oxopyridazin-1(4H)-yl]-1H-pyrazol-1-yl}butanoic acid]", "IC50": "< 100"}, {"smiles": "Cn1cc(-n2ccc(=O)c(Cc3cccc(-c4ncc(OCC(=O)N5CCOCC5)cn4)c3)n2)cn1", "note": "[Example 280, 1-(1-methyl-1H-pyrazol-4-yl)-3-{3-[5-(2-morpholin-4-yl-2-oxoethoxy)pyrimidin-2-yl]benzyl}pyridazin-4(1H)-one]", "IC50": "< 100"}, {"smiles": "Cn1cc(-n2ccc(=O)c(Cc3cccc(-c4ncc(CO)cn4)c3)n2)cn1", "note": "[Example 190, 3-{3-[5-(Hydroxymethyl)pyrimidin-2-yl]benzyl}-1-(1-methyl-1H-pyrazol-4-yl)pyridazin-4(1H)-one]", "IC50": "< 100"}, {"smiles": "CC1COCCN1c1cnc(-c2cccc(Cc3nn(-c4cnn(C)c4)ccc3=O)c2)nc1", "note": "(racemic) [Example 450, rac-3-{3-[5-(3-methylmorpholin-4-yl)pyrimidin-2-yl]benzyl}-1-(1-methyl-1H-pyrazol-4-yl)pyridazin-4(1H)-one]", "IC50": "< 100"}, {"smiles": "Cn1cc(-n2ccc(=O)c(Cc3cccc(-c4ncc(OCC5(CF)COC5)cn4)c3)n2)cn1", "note": "[Example 387, 3-[3-(5-{[3-(Fluoromethyl)oxetan-3-yl]methoxy}pyrimidin-2-yl)benzyl]-1-(1-methyl-1H-pyrazol-4-yl)pyridazin-4(1H)-one]", "IC50": "< 100"}, {"smiles": "Cn1cc(-n2ccc(=O)c(Cc3cccc(-c4ncc(-c5cnn(C6COC6)c5)cn4)c3)n2)cn1", "note": "[Example 435, 1-(1-Methyl-1H-pyrazol-4-yl)-3-{3-[5-(1-oxetan-3-yl-1H-pyrazol-4-yl)pyrimidin-2-yl]benzyl}pyridazin-4(1H)-one]", "IC50": "< 100"}, {"smiles": "CCCc1nc(-c2cccc(Cc3nn(-c4cnn(C)c4)ccc3=O)c2)no1", "note": "[Example 740, 1-(1-methyl-1H-pyrazol-4-yl)-3-[3-(5-propyl-1,2,4-oxadiazol-3-yl)benzyl]pyridazin-4(1H)-one]", "IC50": "< 100"}, {"smiles": "CCOC(=O)Nc1cccc(Cc2nn(-c3cncc(F)c3)ccc2=O)c1", "note": "[Example 34, ethyl (3-{[1-(5-fluoropyridin-3-yl)-4-oxo-1,4-dihydropyridazin-3-yl]methyl}phenyl)carbamate]", "IC50": "< 100"}, {"smiles": "COc1cnc(-c2cccc(Cc3nn(-c4cncc(F)c4)ccc3=O)c2)nc1", "note": "[Example 36, 1-(5-fluoropyridin-3-yl)-3-[3-(5-methoxypyrimidin-2-yl)benzyl]pyridazin-4(1H)-one]", "IC50": "< 100"}, {"smiles": "CC(C)COC(=O)Nc1cccc(Cc2nn(-c3cc(F)c(F)c(F)c3)ccc2=O)c1", "note": "[Example 7, 2-methylpropyl (3-{[4-oxo-1-(3,4,5-trifluorophenyl)-1,4-dihydropyridazin-3-yl]methyl}phenyl)carbamate]", "IC50": "< 100"}, {"smiles": "Cn1cc(-n2ccc(=O)c(Cc3cccc(-c4ncc(C5CC5)cn4)c3)n2)cn1", "note": "[Example 393, 3-[3-(5-cyclopropyl-pyrimidin-2-yl)benzyl]-1-(1-methyl-1H-pyrazol-4-yl)pyridazin-4(1H)-one]", "IC50": "< 100"}, {"smiles": "Cn1cc(-n2ccc(=O)c(Cc3cccc(-c4ncc(NC(=O)CN5CCCC5=O)cn4)c3)n2)cn1", "note": "[Example 463, N-[2-(3-{[1-(1-methyl-1H-pyrazol-4-yl)-4-oxo-1,4-dihydro-pyridazin-3-yl]methyl}phenyl)pyrimidin-5-yl]-2-(2-oxopyrrolidin-1-yl)acetamide]", "IC50": "< 100"}, {"smiles": "CCn1cnc(-c2cccc(C(C)c3nn(-c4cnn(C)c4)ccc3=O)c2)n1", "note": "(single isomer, unassigned) [Example 681, 3-{(1R or S)-1-[3-(1-ethyl-1H-1,2,4-triazol-3-yl)phenyl]ethyl}-1-(1-methyl-1H-pyrazol-4-yl)pyridazin-4(1H)-one]", "IC50": "< 100"}, {"smiles": "O=C(Nc1cccc(Cc2nn(-c3cc(F)c(F)c(F)c3)ccc2=O)c1)OCCCN1CCNCC1", "note": "[Example 623, 3-piperazin-1-ylpropyl (3-{[4-oxo-1-(3,4,5-trifluorophenyl)-1,4-dihydropyridazin-3-yl]methyl}phenyl)carbamate]", "IC50": "< 100"}, {"smiles": "COc1ccnc2ccc(Cc3nn(-c4cnn(C)c4)ccc3=O)cc12", "note": "[Example 142, 3-[(4-methoxyquinolin-6-yl)methyl]-1-(1-methyl-1H-pyrazol-4-yl)pyridazin-4(1H)-one]", "IC50": "100 to 1000"}, {"smiles": "Cn1cc(-n2ccc(=O)c(Cc3cccc(-c4ncc(N5CCC(O)CC5)cn4)c3)n2)cn1", "note": "[Example 442, 3-{3-[5-(4-hydroxypiperidin-1-yl)pyrimidin-2-yl]benzyl}-1-(1-methyl-1H-pyrazol-4-yl)pyridazin-4(1H)-one]", "IC50": "< 100"}]}]}
